From ChEMBL document CHEMBL3085759, “Structure-activity relationship (SAR) and preliminary mode of action studies of 3-substituted benzylthioquinolinium iodide as anti-opportunistic infection agents” (Eur J Med Chem, 2013)
In brackets after ≈: the same amount, converted by molar mass.

Legend:
Aspergillus fumigatus = experiment: Antimicrobial activity against Aspergillus fumigatus ATCC 204305 by Alamar blue method; assay type: functional, organism-based
Staphylococcus aureus [1] = experiment: Antimicrobial activity against methicillin-resistant Staphylococcus aureus ATCC 33591 by Alamar blue method; assay type: functional, organism-based
[2] = tested on: Mycobacterium intracellulare; experiment: Antimicrobial activity against Mycobacterium intracellulare ATCC 23068 by Alamar blue method; assay type: functional, organism-based
Nakaseomyces glabratus = experiment: Antimicrobial activity against Candida glabrata by Alamar blue method; assay type: functional, organism-based
Cryptococcus neoformans = experiment: Antimicrobial activity against Cryptococcus neoformans ATCC 90113 by Alamar blue method; assay type: functional, organism-based
Vero = experiment: Cytotoxicity against african green monkey Vero cells at 10 ug/ml after 48 hrs by Neutral Red dye assay; assay type: cell-based; settings: chlorocebus sabaeus
Pichia kudriavzevii = experiment: Antimicrobial activity against Candida krusei ATCC 6258 by Alamar blue method; assay type: functional, organism-based
Candida albicans = experiment: Antimicrobial activity against Candida albicans ATCC 90028 by Alamar blue method; assay type: functional, organism-based
Staphylococcus aureus [3] = experiment: Antimicrobial activity against Staphylococcus aureus ATCC 29213 by Alamar blue method; assay type: functional, organism-based; settings: Staphylococcus aureus, ATCC 29213; for IC50: read-out: IC50

| SMILES | IC50 (Aspergillus fumigatus) | MFC (Aspergillus fumigatus) | MIC (Aspergillus fumigatus) | IC50 (Staphylococcus aureus [1]) | MBC (Staphylococcus aureus [1]) | MIC (Staphylococcus aureus [1]) | IC50 [2] | MIC [2] | IC50 (Nakaseomyces glabratus) | MIC (Nakaseomyces glabratus) | MFC (Cryptococcus neoformans) | MIC (Cryptococcus neoformans) | IC50 (Pichia kudriavzevii) | MIC (Pichia kudriavzevii) | IC50 (Candida albicans) | MFC (Candida albicans) | MIC (Candida albicans) | MBC (Staphylococcus aureus [3]) | MIC (Staphylococcus aureus [3]) | IC50 (Staphylococcus aureus [3]) | other results |
| --- | --- | --- | --- | --- | --- | --- | --- | --- | --- | --- | --- | --- | --- | --- | --- | --- | --- | --- | --- | --- | --- |
| Fc1ccccc1CSc1cc2ccccc2[n+](CCCCCC2CCCCC2)c1.[I-] | 6.5 µg/mL | 20 µg/mL | 20 µg/mL | 0.74 µg/mL | 2.5 µg/mL | 1.3 µg/mL | 16 µg/mL | 20 µg/mL | 6.3 µg/mL | 20 µg/mL | 1.3 µg/mL | 1.3 µg/mL | 1.4 µg/mL | 2.5 µg/mL | 2.7 µg/mL | 5 µg/mL | 5 µg/mL | 2.5 µg/mL | 1.3 µg/mL | 0.73 µg/mL | MBC [2]: 20 µg/mL; MFC (Nakaseomyces glabratus): 20 µg/mL; IC50 (Cryptococcus neoformans): 0.63 µg/mL; Activity (Vero): Non-toxic; MFC (Pichia kudriavzevii): 2.5 µg/mL |
| FC(F)(F)c1ccccc1CSc1cc2ccccc2[n+](CCCCCC2CCCCC2)c1.[I-] | 3.7 µg/mL | 10 µg/mL | 5 µg/mL | 0.22 µg/mL | 1.3 µg/mL | 0.63 µg/mL | 3.4 µg/mL | 5 µg/mL | 2.7 µg/mL | 5 µg/mL | 1.3 µg/mL | 0.63 µg/mL | 0.43 µg/mL | 1.3 µg/mL | 0.97 µg/mL | 5 µg/mL | 2.5 µg/mL | 1.3 µg/mL | 0.31 µg/mL | 0.19 µg/mL | MBC [2]: 5 µg/mL; IC50 (Cryptococcus neoformans): 0.42 µg/mL; Activity (Vero): Non-toxic |
| Brc1ccccc1CSc1cc2ccccc2[n+](CCCCCC2CCCCC2)c1.[I-] | 9.6 µg/mL | 20 µg/mL | 20 µg/mL | 0.41 µg/mL | 1.3 µg/mL | 0.63 µg/mL | 3.5 µg/mL | 5 µg/mL | 3.4 µg/mL | 10 µg/mL | 2.5 µg/mL | 1.3 µg/mL | 0.49 µg/mL | 1.3 µg/mL | 4 µg/mL | 10 µg/mL | 10 µg/mL | 1.3 µg/mL | 0.63 µg/mL | 0.42 µg/mL | MBC [2]: 5 µg/mL; MFC (Nakaseomyces glabratus): 10 µg/mL; Activity (Vero): Non-toxic; MFC (Pichia kudriavzevii): 1.3 µg/mL |
| [I-].c1ccc(CSc2cc3ccccc3[n+](CCCCCC3CCCCC3)c2)cc1 | 5.7 µg/mL | 20 µg/mL | 10 µg/mL | 0.33 µg/mL | 1.3 µg/mL | 0.63 µg/mL | 4 µg/mL | 5 µg/mL | 2.9 µg/mL | 5 µg/mL | 0.63 µg/mL | 0.31 µg/mL | 0.71 µg/mL | 1.3 µg/mL | 1.6 µg/mL | 5 µg/mL | 5 µg/mL | 10 µg/mL | 0.31 µg/mL | 0.23 µg/mL | MBC [2]: 20 µg/mL; MFC (Nakaseomyces glabratus): 5 µg/mL; Activity (Vero): Non-toxic; MFC (Pichia kudriavzevii): 1.3 µg/mL |
| [I-].c1ccc(CCSc2cc3ccccc3[n+](CCCCCC3CCCCC3)c2)cc1 | 19 µg/mL | > 20 µg/mL | > 20 µg/mL | 1.2 µg/mL | 10 µg/mL | 2.5 µg/mL | 12 µg/mL | 20 µg/mL | 9.5 µg/mL | 20 µg/mL | 1.3 µg/mL | 1.3 µg/mL | 0.69 µg/mL | 5 µg/mL | 3.6 µg/mL | > 20 µg/mL | > 20 µg/mL | 10 µg/mL | 1.3 µg/mL | 0.73 µg/mL | MFC (Nakaseomyces glabratus): > 20 µg/mL; IC50 (Cryptococcus neoformans): 0.73 µg/mL; MFC (Pichia kudriavzevii): 5 µg/mL |
| O=C(O)c1cn(C2CC2)c2cc(N3CCNCC3)c(F)cc2c1=O [CIPROFLOXACIN] | – | – | – | – | – | 0.5 µg/mL (≈ 1.51 µM) | 0.005 µg/mL (≈ 0.0151 µM) | 0.45 µg/mL (≈ 1.36 µM) | – | – | – | – | – | – | – | – | – | – | 0.5 µg/mL (≈ 1.51 µM) | – | – |
| Ic1cc2ccccc2[n+](CCCCCC2CCCCC2)c1.[I-] | > 20 µg/mL | > 20 µg/mL | > 20 µg/mL | > 20 µg/mL | > 20 µg/mL | > 20 µg/mL | > 20 µg/mL | > 20 µg/mL | > 20 µg/mL | > 20 µg/mL | 10 µg/mL | 10 µg/mL | 1.7 µg/mL | 10 µg/mL | > 20 µg/mL | > 20 µg/mL | > 20 µg/mL | > 20 µg/mL | > 20 µg/mL | 18 µg/mL | MBC [2]: > 20 µg/mL; MFC (Nakaseomyces glabratus): > 20 µg/mL; IC50 (Cryptococcus neoformans): 5.8 µg/mL; MFC (Pichia kudriavzevii): 10 µg/mL |
| [I-].c1ccc(Oc2cc3ccccc3[n+](CCCCCC3CCCCC3)c2)cc1 | > 20 µg/mL | > 20 µg/mL | > 20 µg/mL | > 20 µg/mL | > 20 µg/mL | > 20 µg/mL | > 20 µg/mL | > 20 µg/mL | > 20 µg/mL | > 20 µg/mL | > 20 µg/mL | > 20 µg/mL | > 20 µg/mL | > 20 µg/mL | > 20 µg/mL | > 20 µg/mL | > 20 µg/mL | > 20 µg/mL | > 20 µg/mL | 19 µg/mL | MBC [2]: > 20 µg/mL; MFC (Nakaseomyces glabratus): > 20 µg/mL; IC50 (Cryptococcus neoformans): > 20 µg/mL; MFC (Pichia kudriavzevii): > 20 µg/mL |
| [I-].c1ccc2c(c1)cc(SC1CCCCC1)c[n+]2CCCCCC1CCCCC1 | > 20 µg/mL | > 20 µg/mL | > 20 µg/mL | 1.2 µg/mL | 10 µg/mL | 2.5 µg/mL | 8.4 µg/mL | 10 µg/mL | 15 µg/mL | > 20 µg/mL | 2.5 µg/mL | 2.5 µg/mL | 0.35 µg/mL | 2.5 µg/mL | > 20 µg/mL | > 20 µg/mL | > 20 µg/mL | 10 µg/mL | 1.3 µg/mL | 0.74 µg/mL | MBC [2]: 10 µg/mL; MFC (Nakaseomyces glabratus): > 20 µg/mL; IC50 (Cryptococcus neoformans): 1.2 µg/mL; MFC (Pichia kudriavzevii): 2.5 µg/mL |
| Fc1ccc(Oc2cc3ccccc3[n+](CCCCCC3CCCCC3)c2)cc1.[I-] | > 20 µg/mL | > 20 µg/mL | > 20 µg/mL | 14 µg/mL | > 20 µg/mL | > 20 µg/mL | 20 µg/mL | 20 µg/mL | > 20 µg/mL | > 20 µg/mL | 10 µg/mL | 10 µg/mL | > 20 µg/mL | > 20 µg/mL | > 20 µg/mL | > 20 µg/mL | > 20 µg/mL | > 20 µg/mL | 20 µg/mL | 14 µg/mL | MBC [2]: 20 µg/mL; MFC (Nakaseomyces glabratus): > 20 µg/mL; IC50 (Cryptococcus neoformans): 8.62 µg/mL; MFC (Pichia kudriavzevii): > 20 µg/mL |
